Reference: ChEMBL document CHEMBL1145498, “A systematic interaction map of validated kinase inhibitors with Ser/Thr kinases” (Proc Natl Acad Sci U S A, 2007)

Target: 5'-AMP-activated protein kinase catalytic subunit alpha-2 (Homo sapiens) (UniProt P54646)

| Structure (SMILES) | ΔTm [°C] |
| --- | --- |
| OC[C@H]1O[C@@H](n2cnc3cc(Cl)c(Cl)cc32)[C@H](O)[C@@H]1O | -0.7 |
| Cc1cncc2cccc(S(=O)(=O)N3CCCNC[C@@H]3C)c12 | 1.7 |
| CN[C@@H]1CC2O[C@@](C)([C@@H]1OC)n1c3ccccc3c3c4c(c5c6ccccc6n2c5c31)C(=O)NC4 | 16.7 |

Target: Calcium/calmodulin-dependent protein kinase type II subunit alpha (Homo sapiens) (UniProt Q9UQM7)
Sequence (Q9UQM7 whole entry): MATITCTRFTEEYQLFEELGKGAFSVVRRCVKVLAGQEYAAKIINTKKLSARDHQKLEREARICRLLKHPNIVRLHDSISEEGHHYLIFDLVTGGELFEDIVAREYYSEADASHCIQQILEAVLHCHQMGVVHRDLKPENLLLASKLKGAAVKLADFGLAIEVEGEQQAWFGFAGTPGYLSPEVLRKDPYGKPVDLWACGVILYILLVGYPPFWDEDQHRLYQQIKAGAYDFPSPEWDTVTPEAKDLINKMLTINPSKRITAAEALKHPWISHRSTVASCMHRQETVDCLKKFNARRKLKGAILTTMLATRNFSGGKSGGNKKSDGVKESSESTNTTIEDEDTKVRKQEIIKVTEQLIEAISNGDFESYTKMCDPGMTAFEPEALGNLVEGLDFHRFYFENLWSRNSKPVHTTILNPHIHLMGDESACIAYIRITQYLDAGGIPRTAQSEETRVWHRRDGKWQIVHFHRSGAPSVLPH

| Structure (SMILES) | ΔTm [°C] |
| --- | --- |
| OC[C@H]1O[C@@H](n2cnc3cc(Cl)c(Cl)cc32)[C@H](O)[C@@H]1O | 0.8 |
| Cc1cncc2cccc(S(=O)(=O)N3CCCNC[C@@H]3C)c12 | 1.2 |
| CN[C@@H]1CC2O[C@@](C)([C@@H]1OC)n1c3ccccc3c3c4c(c5c6ccccc6n2c5c31)C(=O)NC4 | 16.3 |

Target: T1, Calcium/calmodulin-dependent protein kinase type IV (Homo sapiens) (UniProt Q16566)
T1 sequence (whole entry): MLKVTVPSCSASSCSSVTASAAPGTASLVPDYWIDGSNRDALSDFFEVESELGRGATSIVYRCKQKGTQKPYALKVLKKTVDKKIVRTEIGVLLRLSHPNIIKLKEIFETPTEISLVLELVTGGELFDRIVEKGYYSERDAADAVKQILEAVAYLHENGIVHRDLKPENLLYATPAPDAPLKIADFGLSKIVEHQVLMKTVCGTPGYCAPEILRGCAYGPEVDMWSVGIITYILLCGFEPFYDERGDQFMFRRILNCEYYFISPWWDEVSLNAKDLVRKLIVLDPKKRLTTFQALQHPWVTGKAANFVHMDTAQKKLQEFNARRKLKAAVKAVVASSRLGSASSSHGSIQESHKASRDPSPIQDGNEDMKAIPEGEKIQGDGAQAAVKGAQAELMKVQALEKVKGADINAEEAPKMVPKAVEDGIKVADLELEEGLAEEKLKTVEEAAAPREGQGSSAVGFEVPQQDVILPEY

| Structure (SMILES) | ΔTm [°C] |
| --- | --- |
| OC[C@H]1O[C@@H](n2cnc3cc(Cl)c(Cl)cc32)[C@H](O)[C@@H]1O | 0.2 |
| Cc1cncc2cccc(S(=O)(=O)N3CCCNC[C@@H]3C)c12 | 0.3 |

Target: Calcium/calmodulin-dependent protein kinase kinase 2 (Homo sapiens, UniProt Q96RR4)
Sequence (Q96RR4 2-588 limits assumed): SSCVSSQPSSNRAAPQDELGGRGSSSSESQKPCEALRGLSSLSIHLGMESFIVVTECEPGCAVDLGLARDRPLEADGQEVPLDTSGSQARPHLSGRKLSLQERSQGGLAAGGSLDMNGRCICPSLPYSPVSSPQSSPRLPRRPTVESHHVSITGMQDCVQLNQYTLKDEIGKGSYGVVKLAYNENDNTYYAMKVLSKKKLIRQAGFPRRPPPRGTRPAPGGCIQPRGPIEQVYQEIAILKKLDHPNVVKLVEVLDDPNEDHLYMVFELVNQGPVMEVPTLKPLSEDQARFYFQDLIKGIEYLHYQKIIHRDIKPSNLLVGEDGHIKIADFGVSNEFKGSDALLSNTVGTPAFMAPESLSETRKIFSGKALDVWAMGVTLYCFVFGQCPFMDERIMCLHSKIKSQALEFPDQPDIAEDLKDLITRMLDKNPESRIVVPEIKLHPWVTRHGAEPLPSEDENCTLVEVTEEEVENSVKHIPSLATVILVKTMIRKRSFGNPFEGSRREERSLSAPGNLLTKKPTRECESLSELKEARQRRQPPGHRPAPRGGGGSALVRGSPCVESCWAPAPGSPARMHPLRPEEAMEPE

| Structure (SMILES) | ΔTm [°C] |
| --- | --- |
| OC[C@H]1O[C@@H](n2cnc3cc(Cl)c(Cl)cc32)[C@H](O)[C@@H]1O | 0.6 |
| Cc1cncc2cccc(S(=O)(=O)N3CCCNC[C@@H]3C)c12 | -0.1 |
| CN[C@@H]1CC2O[C@@](C)([C@@H]1OC)n1c3ccccc3c3c4c(c5c6ccccc6n2c5c31)C(=O)NC4 | 18.6 |

Target: Serine/threonine-protein kinase Chk2 (Homo sapiens, UniProt O96017)

| Structure (SMILES) | ΔTm [°C] |
| --- | --- |
| OC[C@H]1O[C@@H](n2cnc3cc(Cl)c(Cl)cc32)[C@H](O)[C@@H]1O | 0.2 |
| Cc1cncc2cccc(S(=O)(=O)N3CCCNC[C@@H]3C)c12 | 1.5 |

Target: Dual specificity protein kinase CLK1 (Homo sapiens) (UniProt P49759)

| Structure (SMILES) | ΔTm [°C] |
| --- | --- |
| OC[C@H]1O[C@@H](n2cnc3cc(Cl)c(Cl)cc32)[C@H](O)[C@@H]1O | 3.1 |
| Cc1cncc2cccc(S(=O)(=O)N3CCCNC[C@@H]3C)c12 | 3 |

Target: Casein kinase I isoform gamma-2 (Homo sapiens) (UniProt P78368)

| Structure (SMILES) | ΔTm [°C] |
| --- | --- |
| OC[C@H]1O[C@@H](n2cnc3cc(Cl)c(Cl)cc32)[C@H](O)[C@@H]1O | 0.6 |
| Cc1cncc2cccc(S(=O)(=O)N3CCCNC[C@@H]3C)c12 | 0.6 |

Target: Casein kinase I isoform gamma-3 (Homo sapiens) (UniProt Q9Y6M4)
Sequence (Q9Y6M4 whole entry, looked up, canonical isoform): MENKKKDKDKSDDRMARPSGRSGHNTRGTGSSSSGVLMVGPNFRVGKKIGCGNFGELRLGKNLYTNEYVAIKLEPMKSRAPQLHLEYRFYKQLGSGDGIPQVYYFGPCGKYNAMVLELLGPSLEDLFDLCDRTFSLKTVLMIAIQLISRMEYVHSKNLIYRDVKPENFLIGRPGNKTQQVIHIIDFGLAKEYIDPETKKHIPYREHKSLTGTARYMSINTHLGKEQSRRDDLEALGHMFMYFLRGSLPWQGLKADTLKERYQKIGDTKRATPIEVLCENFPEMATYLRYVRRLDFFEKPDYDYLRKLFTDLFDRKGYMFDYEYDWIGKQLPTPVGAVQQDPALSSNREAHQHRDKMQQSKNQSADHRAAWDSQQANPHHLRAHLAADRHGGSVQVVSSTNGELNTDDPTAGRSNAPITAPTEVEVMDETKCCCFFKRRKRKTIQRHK

| Structure (SMILES) | ΔTm [°C] |
| --- | --- |
| OC[C@H]1O[C@@H](n2cnc3cc(Cl)c(Cl)cc32)[C@H](O)[C@@H]1O | 1 |
| Cc1cncc2cccc(S(=O)(=O)N3CCCNC[C@@H]3C)c12 | 0.2 |
| CN[C@@H]1CC2O[C@@](C)([C@@H]1OC)n1c3ccccc3c3c4c(c5c6ccccc6n2c5c31)C(=O)NC4 | 1.9 |

Target: Tyrosine-protein kinase JAK1 (Homo sapiens) (UniProt P23458)
Sequence (P23458 whole entry): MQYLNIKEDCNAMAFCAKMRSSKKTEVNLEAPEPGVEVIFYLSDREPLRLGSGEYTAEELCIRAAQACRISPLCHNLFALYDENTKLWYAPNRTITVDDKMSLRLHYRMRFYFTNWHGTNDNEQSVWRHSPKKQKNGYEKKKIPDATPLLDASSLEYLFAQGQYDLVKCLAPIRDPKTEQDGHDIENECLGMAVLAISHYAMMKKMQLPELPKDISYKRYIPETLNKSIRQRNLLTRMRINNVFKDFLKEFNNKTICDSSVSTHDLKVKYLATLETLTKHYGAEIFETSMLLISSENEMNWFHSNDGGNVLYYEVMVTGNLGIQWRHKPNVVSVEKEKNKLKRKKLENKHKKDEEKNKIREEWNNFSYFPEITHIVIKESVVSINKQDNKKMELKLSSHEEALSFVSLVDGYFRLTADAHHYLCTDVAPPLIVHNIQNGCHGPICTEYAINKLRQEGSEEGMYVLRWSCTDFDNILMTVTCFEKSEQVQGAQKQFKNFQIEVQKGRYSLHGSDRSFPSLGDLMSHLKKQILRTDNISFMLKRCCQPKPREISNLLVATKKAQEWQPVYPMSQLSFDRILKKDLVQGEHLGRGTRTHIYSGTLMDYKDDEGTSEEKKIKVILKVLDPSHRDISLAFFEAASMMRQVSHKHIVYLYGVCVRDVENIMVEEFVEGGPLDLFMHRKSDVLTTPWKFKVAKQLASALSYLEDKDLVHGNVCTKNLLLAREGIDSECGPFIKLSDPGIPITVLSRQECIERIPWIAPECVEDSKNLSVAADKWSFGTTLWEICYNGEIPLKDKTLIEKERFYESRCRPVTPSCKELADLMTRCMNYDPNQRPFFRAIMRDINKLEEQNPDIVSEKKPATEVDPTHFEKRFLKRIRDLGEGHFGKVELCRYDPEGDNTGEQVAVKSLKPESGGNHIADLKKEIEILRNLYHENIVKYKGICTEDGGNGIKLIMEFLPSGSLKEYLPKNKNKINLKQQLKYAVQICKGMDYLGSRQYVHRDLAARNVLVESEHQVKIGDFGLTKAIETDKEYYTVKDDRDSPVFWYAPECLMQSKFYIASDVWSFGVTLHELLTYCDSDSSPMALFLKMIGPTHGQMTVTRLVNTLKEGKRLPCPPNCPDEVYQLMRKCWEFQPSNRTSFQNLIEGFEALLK

| Structure (SMILES) | ΔTm [°C] |
| --- | --- |
| OC[C@H]1O[C@@H](n2cnc3cc(Cl)c(Cl)cc32)[C@H](O)[C@@H]1O | 0 |
| Cc1cncc2cccc(S(=O)(=O)N3CCCNC[C@@H]3C)c12 | -0.1 |
| CN[C@@H]1CC2O[C@@](C)([C@@H]1OC)n1c3ccccc3c3c4c(c5c6ccccc6n2c5c31)C(=O)NC4 | 1.9 |

Target: T2, Dual specificity mitogen-activated protein kinase kinase 6 (Homo sapiens) (UniProt P52564)
T2 sequence (whole entry): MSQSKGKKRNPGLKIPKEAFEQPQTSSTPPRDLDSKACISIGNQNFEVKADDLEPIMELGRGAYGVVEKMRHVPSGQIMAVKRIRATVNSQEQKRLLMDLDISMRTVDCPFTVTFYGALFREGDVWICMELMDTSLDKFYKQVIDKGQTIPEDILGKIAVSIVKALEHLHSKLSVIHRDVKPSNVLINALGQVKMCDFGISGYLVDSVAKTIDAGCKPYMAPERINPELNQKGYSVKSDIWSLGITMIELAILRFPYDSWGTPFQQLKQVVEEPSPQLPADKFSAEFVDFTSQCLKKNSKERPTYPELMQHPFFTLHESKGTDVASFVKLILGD

| Structure (SMILES) | ΔTm [°C] |
| --- | --- |
| OC[C@H]1O[C@@H](n2cnc3cc(Cl)c(Cl)cc32)[C@H](O)[C@@H]1O | 0.2 |
| Cc1cncc2cccc(S(=O)(=O)N3CCCNC[C@@H]3C)c12 | 0.4 |
| CN[C@@H]1CC2O[C@@](C)([C@@H]1OC)n1c3ccccc3c3c4c(c5c6ccccc6n2c5c31)C(=O)NC4 | 11.6 |

Target: Mitogen-activated protein kinase 3 (Homo sapiens, UniProt P27361)
Sequence (P27361 whole entry): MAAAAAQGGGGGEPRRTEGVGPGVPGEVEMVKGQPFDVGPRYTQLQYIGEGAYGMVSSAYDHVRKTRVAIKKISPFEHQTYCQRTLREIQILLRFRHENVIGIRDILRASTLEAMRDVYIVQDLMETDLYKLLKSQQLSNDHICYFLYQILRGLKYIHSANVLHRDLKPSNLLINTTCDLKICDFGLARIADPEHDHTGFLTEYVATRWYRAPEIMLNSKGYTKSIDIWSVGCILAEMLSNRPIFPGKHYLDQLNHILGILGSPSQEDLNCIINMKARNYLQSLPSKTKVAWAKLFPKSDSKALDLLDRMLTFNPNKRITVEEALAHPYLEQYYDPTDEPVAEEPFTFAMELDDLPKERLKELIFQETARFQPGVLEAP

| Structure (SMILES) | ΔTm [°C] |
| --- | --- |
| OC[C@H]1O[C@@H](n2cnc3cc(Cl)c(Cl)cc32)[C@H](O)[C@@H]1O | 0.4 |
| Cc1cncc2cccc(S(=O)(=O)N3CCCNC[C@@H]3C)c12 | 0.2 |
| CN[C@@H]1CC2O[C@@](C)([C@@H]1OC)n1c3ccccc3c3c4c(c5c6ccccc6n2c5c31)C(=O)NC4 | 1.3 |

Target: Serine/threonine-protein kinase Nek6 (Homo sapiens) (UniProt Q9HC98)

| Structure (SMILES) | ΔTm [°C] |
| --- | --- |
| Cc1cncc2cccc(S(=O)(=O)N3CCCNC[C@@H]3C)c12 | 0 |
| CN[C@@H]1CC2O[C@@](C)([C@@H]1OC)n1c3ccccc3c3c4c(c5c6ccccc6n2c5c31)C(=O)NC4 | -0.3 |

Target: T3, 3-phosphoinositide-dependent protein kinase 1 (Homo sapiens) (UniProt O15530)
T3 sequence (whole entry): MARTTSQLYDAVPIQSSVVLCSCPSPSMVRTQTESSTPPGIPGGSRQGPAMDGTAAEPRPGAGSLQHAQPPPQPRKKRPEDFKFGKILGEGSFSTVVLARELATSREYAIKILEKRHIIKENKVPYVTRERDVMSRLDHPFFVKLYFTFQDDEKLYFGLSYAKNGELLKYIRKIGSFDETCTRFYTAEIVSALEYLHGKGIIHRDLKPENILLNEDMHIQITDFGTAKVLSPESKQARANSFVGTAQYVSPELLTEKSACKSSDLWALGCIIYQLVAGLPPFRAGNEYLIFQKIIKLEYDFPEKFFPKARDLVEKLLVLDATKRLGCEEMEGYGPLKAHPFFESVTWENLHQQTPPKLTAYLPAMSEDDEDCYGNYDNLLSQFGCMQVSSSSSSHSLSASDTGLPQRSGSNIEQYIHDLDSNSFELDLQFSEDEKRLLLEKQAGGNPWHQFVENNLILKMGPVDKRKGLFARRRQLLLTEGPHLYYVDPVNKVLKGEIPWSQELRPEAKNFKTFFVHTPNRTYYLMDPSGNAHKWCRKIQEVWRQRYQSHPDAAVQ

| Structure (SMILES) | ΔTm [°C] |
| --- | --- |
| OC[C@H]1O[C@@H](n2cnc3cc(Cl)c(Cl)cc32)[C@H](O)[C@@H]1O | 0.1 |
| Cc1cncc2cccc(S(=O)(=O)N3CCCNC[C@@H]3C)c12 | -0.2 |
| CN[C@@H]1CC2O[C@@](C)([C@@H]1OC)n1c3ccccc3c3c4c(c5c6ccccc6n2c5c31)C(=O)NC4 | -0.7 |

Target: cAMP-dependent protein kinase catalytic subunit alpha (Homo sapiens) (UniProt P17612)

| Structure (SMILES) | ΔTm [°C] |
| --- | --- |
| OC[C@H]1O[C@@H](n2cnc3cc(Cl)c(Cl)cc32)[C@H](O)[C@@H]1O | 0.4 |
| Cc1cncc2cccc(S(=O)(=O)N3CCCNC[C@@H]3C)c12 | 3.5 |
| CN[C@@H]1CC2O[C@@](C)([C@@H]1OC)n1c3ccccc3c3c4c(c5c6ccccc6n2c5c31)C(=O)NC4 | 11.3 |

Target: Serine/threonine-protein kinase RIO2 (Homo sapiens) (UniProt Q9BVS4)
Sequence (Q9BVS4 whole entry, looked up): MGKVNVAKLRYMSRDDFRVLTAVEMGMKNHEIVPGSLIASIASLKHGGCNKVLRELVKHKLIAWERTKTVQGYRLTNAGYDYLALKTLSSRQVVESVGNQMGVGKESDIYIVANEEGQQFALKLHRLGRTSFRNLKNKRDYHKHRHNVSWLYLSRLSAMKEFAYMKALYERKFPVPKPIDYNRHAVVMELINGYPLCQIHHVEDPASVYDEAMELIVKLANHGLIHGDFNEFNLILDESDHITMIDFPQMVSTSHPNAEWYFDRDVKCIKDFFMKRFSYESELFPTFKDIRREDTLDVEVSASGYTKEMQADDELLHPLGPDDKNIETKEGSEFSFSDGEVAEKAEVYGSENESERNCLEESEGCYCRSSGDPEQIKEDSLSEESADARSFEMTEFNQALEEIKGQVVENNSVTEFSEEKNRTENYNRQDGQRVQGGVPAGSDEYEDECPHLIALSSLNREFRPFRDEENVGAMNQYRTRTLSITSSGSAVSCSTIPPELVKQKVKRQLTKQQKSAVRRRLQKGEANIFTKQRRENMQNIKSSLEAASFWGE

| Structure (SMILES) | ΔTm [°C] |
| --- | --- |
| OC[C@H]1O[C@@H](n2cnc3cc(Cl)c(Cl)cc32)[C@H](O)[C@@H]1O | 0.7 |
| Cc1cncc2cccc(S(=O)(=O)N3CCCNC[C@@H]3C)c12 | 0.4 |
| CN[C@@H]1CC2O[C@@](C)([C@@H]1OC)n1c3ccccc3c3c4c(c5c6ccccc6n2c5c31)C(=O)NC4 | 0.5 |

Target: Ribosomal protein S6 kinase alpha-3 (Homo sapiens) (UniProt P51812)

| Structure (SMILES) | ΔTm [°C] |
| --- | --- |
| OC[C@H]1O[C@@H](n2cnc3cc(Cl)c(Cl)cc32)[C@H](O)[C@@H]1O | 1.3 |
| Cc1cncc2cccc(S(=O)(=O)N3CCCNC[C@@H]3C)c12 | 2.4 |
| CN[C@@H]1CC2O[C@@](C)([C@@H]1OC)n1c3ccccc3c3c4c(c5c6ccccc6n2c5c31)C(=O)NC4 | 12.3 |

Target: STE20-like serine/threonine-protein kinase (Homo sapiens) (UniProt Q9H2G2)
Sequence (Q9H2G2 whole entry, looked up): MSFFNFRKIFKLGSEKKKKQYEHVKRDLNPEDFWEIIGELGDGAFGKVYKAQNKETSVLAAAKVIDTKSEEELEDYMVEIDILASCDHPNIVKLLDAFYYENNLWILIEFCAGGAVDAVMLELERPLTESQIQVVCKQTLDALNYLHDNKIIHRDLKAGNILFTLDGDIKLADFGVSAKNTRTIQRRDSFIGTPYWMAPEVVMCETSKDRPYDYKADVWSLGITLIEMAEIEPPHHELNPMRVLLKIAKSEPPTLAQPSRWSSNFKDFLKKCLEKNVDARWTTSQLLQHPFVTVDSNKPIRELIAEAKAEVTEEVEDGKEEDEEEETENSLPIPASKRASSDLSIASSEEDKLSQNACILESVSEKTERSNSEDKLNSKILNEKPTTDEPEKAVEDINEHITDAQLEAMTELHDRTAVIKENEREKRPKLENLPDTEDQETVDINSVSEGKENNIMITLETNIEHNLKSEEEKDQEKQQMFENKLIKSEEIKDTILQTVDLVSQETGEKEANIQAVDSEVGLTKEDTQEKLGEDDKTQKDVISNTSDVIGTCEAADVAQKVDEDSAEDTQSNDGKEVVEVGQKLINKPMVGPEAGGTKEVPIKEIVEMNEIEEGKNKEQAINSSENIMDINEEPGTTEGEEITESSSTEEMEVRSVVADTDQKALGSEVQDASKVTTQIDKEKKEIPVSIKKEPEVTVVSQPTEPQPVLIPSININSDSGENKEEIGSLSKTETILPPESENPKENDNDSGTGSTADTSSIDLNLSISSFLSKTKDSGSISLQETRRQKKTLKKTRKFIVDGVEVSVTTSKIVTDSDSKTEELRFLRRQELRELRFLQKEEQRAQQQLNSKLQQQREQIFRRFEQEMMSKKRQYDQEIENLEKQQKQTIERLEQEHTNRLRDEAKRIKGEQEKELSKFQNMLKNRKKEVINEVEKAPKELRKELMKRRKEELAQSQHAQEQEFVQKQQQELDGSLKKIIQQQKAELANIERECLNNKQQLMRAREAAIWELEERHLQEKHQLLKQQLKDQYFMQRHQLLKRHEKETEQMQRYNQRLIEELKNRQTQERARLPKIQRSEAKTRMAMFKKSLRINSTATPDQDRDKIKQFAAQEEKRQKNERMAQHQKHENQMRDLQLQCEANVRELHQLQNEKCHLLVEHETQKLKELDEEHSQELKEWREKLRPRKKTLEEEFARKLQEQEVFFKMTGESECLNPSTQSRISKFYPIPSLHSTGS

| Structure (SMILES) | ΔTm [°C] |
| --- | --- |
| OC[C@H]1O[C@@H](n2cnc3cc(Cl)c(Cl)cc32)[C@H](O)[C@@H]1O | 0.1 |
| Cc1cncc2cccc(S(=O)(=O)N3CCCNC[C@@H]3C)c12 | 2.9 |
| CN[C@@H]1CC2O[C@@](C)([C@@H]1OC)n1c3ccccc3c3c4c(c5c6ccccc6n2c5c31)C(=O)NC4 | 20.1 |

Target: TRAF2 and NCK-interacting protein kinase (Homo sapiens) (UniProt Q9UKE5)

| Structure (SMILES) | ΔTm [°C] |
| --- | --- |
| OC[C@H]1O[C@@H](n2cnc3cc(Cl)c(Cl)cc32)[C@H](O)[C@@H]1O | 0.2 |
| Cc1cncc2cccc(S(=O)(=O)N3CCCNC[C@@H]3C)c12 | 1 |
| CN[C@@H]1CC2O[C@@](C)([C@@H]1OC)n1c3ccccc3c3c4c(c5c6ccccc6n2c5c31)C(=O)NC4 | 9.4 |

Target: T4, Serine/threonine-protein kinase VRK3 (Homo sapiens) (UniProt Q8IV63)
T4 sequence (whole entry): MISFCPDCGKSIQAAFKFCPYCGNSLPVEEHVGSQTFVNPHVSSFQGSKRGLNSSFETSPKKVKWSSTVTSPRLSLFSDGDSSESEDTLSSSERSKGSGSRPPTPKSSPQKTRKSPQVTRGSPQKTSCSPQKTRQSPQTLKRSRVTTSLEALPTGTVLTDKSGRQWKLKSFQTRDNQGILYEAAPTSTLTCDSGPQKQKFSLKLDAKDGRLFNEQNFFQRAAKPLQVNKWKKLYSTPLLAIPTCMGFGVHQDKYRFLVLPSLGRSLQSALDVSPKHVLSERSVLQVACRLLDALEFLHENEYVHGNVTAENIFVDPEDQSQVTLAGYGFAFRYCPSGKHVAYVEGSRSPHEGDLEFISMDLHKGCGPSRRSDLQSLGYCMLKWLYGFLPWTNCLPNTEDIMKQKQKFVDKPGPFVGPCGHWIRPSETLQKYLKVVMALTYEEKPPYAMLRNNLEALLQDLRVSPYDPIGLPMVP

| Structure (SMILES) | ΔTm [°C] |
| --- | --- |
| OC[C@H]1O[C@@H](n2cnc3cc(Cl)c(Cl)cc32)[C@H](O)[C@@H]1O | -0.2 |
| Cc1cncc2cccc(S(=O)(=O)N3CCCNC[C@@H]3C)c12 | 0.4 |
| CN[C@@H]1CC2O[C@@](C)([C@@H]1OC)n1c3ccccc3c3c4c(c5c6ccccc6n2c5c31)C(=O)NC4 | 0.3 |
